Experimental data as given in US6812221B2, “FGF-affinity chromatography” (The Texas A&M University System, priority 2000, dated 2004).
Entries after “also recorded” stand apart in the source; their conditions may differ.

Experiments:
mouse keratinocytes (MK) = assay: Mitogenic activity in cultured mouse keratinocytes (MK); type: cell-based; conditions: cells in culture
Description: (§1) Finally, the recovery and activity of purified ^54Ser-FGF7 was tested after the removal of the GST portion by trypsin treatment from the heparin-immobilized GST-FGF7 recovered under the improved conditions employing 10 mM MgCl2 and the BL21 (DE3) pLysS strain. […] Results indicated a yield of pure ^54Ser-FGF7 of 4.8±0.5 mg per liter per OD600, which on a molar basis represents an average yield of 70 percent from the purified GST-FGF7 product.

FGFR2111b = biological target: T1, FGFR2111b (Homo sapiens, UniProt P21802); assay: Binding to FGFR complex on the surface of insect cells
T1 construct: expressed in transfected cells; host or cells: insect cells
T1 sequence (P21802 22-822 isoform P21802-3 limits assumed): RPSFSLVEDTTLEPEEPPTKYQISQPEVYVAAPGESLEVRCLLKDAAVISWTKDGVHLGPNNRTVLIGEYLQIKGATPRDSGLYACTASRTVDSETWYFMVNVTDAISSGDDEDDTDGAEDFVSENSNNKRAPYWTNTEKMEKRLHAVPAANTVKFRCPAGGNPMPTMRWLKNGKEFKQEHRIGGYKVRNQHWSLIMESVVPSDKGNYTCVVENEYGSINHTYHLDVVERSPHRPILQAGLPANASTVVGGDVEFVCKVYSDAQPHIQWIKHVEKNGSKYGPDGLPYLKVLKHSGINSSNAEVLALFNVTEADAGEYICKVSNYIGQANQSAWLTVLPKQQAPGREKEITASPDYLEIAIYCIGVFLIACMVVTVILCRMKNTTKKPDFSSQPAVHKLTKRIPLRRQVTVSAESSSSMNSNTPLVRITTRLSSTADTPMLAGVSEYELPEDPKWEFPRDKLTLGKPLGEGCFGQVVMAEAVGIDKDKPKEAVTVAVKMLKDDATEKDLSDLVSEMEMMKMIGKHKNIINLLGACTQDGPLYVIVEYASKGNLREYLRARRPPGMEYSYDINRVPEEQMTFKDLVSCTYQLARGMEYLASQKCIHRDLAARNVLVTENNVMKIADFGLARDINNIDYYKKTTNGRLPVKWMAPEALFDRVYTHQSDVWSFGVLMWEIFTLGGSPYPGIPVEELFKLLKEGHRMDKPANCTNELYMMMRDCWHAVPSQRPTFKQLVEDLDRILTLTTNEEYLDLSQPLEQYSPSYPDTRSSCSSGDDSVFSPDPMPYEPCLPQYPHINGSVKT
Description: as §1

[1] = Heparin affinity chromatography / heparin binding
Description: FIG. 1. Intact heparin-binding in the GST-FGF7 fusion product. Pure 200 μg GST-FGF7 and 10 ng ^125I-FGF7 (3×10^6 cpm) was mixed and subjected to heparin affinity chromatography on Pharmacia FPLC system. The GST-FGF7 was detected as a major peak (solid trace) by absorbance at 280 nm.
When fused at the N-terminal of FGF7 with a highly soluble and productive partner, Glutathione-S-transferase (GST), FGF7 was produced in bacteria at about 3.2 mg/ml yield with retained biological activity. Expressing alone has barely detectable level by immuno-reaction. Pure fusion protein was obtained by sequential chromatography on Glutathione (GSH) and Heparin affinity matrix (Luo et al. 1998, Lu et al. 1999, Jang et al. 1997). This is consistent with FGF7 crystal structure, which shown that the N-terminal of FGF7 is flexible and outside the compact core structure, and heparin-binding domain is apart from the flexible N-terminal. FGF7 itself was released by simply trypsin digestion that mimics an in vivo cleavage event (Luo et al. 1998, Lu et al. 1999, Jang et al. 1997).

Factor IIa = assay: Neutralization assay, anti-Factor IIa activity of heparin; type: biochemical; conditions: 0.9M NaCl eluted 6000 Da heparin fractions
Description: (§2) FIG. 4. Neutralization of anticoagulant activity of 0.9M NaCl eluted 6000 Da heparin (Sigma) fractions from GST-FGF7 column (closed squares) or Antithrombin column (closed triangles) by FGF7. a. 0.3, 1, 3, 10, 30 ug/ml FGF7 was used to neutralize anti-Factor Xa activity of 0.9M elute. b. 0.3, 1, 3, 10, 30 μg/ml FGF7 was used to neutralize anti-Factor IIa activity. The activity was expressed as percentage of Factor Xa or IIa activity in the presence of Antithrombin and FGF7, but absence of any heparin, subtracted by the remaining activity without FGF7 addition. […] Data represent average of at least three separate experiments.
(§3) Neutralization assay. 10 μl 1 μg/ml 0.9 M high affinity FGF7 or Antithrombin bound 6000 Da heparin (final concentration 100 ng/ml) (Sigma, St. Louis) and 10 μl various concentration of FGF7 were incubated with 10 μl 10 μg/ml Antithrombin solution. The rest of the assay was essentially followed the anti-Factor Xa or anti-Factor IIa assay described above. The activity was expressed as percentage of Factor Xa or IIa activity in the presence of Antithrombin and FGF7, but absence of any heparin, subtracted by the remaining activity without FGF7 addition.

factor Xa [2] = assay: Neutralization assay, anti-Factor Xa activity of heparin; type: biochemical; conditions: 0.9M NaCl eluted 6000 Da heparin fractions
Description: as §2, §3

[3] = cited from earlier work
FGF7 = biological target: T2, FGF7 (Rattus norvegicus, UniProt Q02195); assay: Protease (pronase) protection assay with 125I-FGF7; type: biochemical; conditions: 150 ng pronase, overnight 37° C., SDS-PAGE/autoradiography
T2 construct: GST (N, cleaved yes); made in house; host or cells: bacteria (E. coli)
T2 sequence (Q02195 55-194): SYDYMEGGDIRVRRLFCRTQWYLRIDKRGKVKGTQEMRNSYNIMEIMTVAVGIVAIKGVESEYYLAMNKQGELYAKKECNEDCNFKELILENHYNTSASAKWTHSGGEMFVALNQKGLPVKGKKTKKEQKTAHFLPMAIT
Description: Interaction of Heparin and Oligosaccharides with FGF. The antithrombin-binding decasaccharide (10-mer) was prepared, purified to homogeneity (28) and has the structure ΔUAp2S(1→4)-α-D-GlcNpS6S(1→4)-α-L-IdoAp(1→4)-α-D-GlcNpAc6S(1→4)-β-D-GlcAp(1→4)-α-D-GlcNpS3S6S(1→4)-α-L-IdoAp2S(1→4)-α-D-GlcNpS6S(1→4)-α-L-IdoAp2S(1→4)-α-D-GlcNpS6S. The tetradecasaccharide (14-mer) was prepared in >90% purity and characterized by multidimensional NMR spectroscopy (Toida et al. 1996). While the saccharide composition and the presence of an antithrombin-binding site pentasaccharide sequence could be confirmed, the precise placement of this sequence within the tetradecasaccharide could not be elucidated. The sequence was ΔUAp2S(1→4)-α-D-GlcNpS6S (1→4)-α-L-IdoAp2S(1→]n4)-α-D-GlcNpS6S(1→4)-α-LIdoAp(1→4)-α-D-GlcNpAc6S(1→4)-β-D-GlcAp(1→4)-α-D-GlcNpS3S6S(1→4)-α-L-IdoAp2S(1→[4)-α-D-GlcNpS6S(1→4)-α-L-IdoAp2S(1 43 ]m4)-α-D-GlcNS6S where n+m=3. The anti-factor Xa amydolytic activity of the hexasaccharide (6-mer), decasaccharide (10-mer) and tetradecasaccharide (14-mer) were 0, 3200 and 5800 units/mg, respectively, as determined against a low molecular weight heparin (Toida et al. 1996). Heparin was fractionated by antithrombin affinity chromatography (Kan et al. 1999). […] After incubation overnight at 37° C., SDS-PAGE and autoradiography were employed to quantify the remaining FGF. […]

factor Xa [4] = conditions: determined against a low molecular weight heparin (Toida et al. 1996); cited from earlier work

## GST-FGF1: human FGF1 fused to Glutathione-S-Transferase (GST)
Mouse keratinocytes (MK)
  mitogenic activity: Neither GST-FGF1 nor GST-FGF7 bind and activate the FGFR kinase complex and exhibit mitogenic activity
FGFR2111b
  binding to / activation of the FGFR complex: Neither GST-FGF1 nor GST-FGF7 bind and activate the FGFR kinase complex
[1]
  heparin binding: retain affinity for heparin similar to the unfused products

## GST-FGF7: fusion protein Glutathione-S-Transferase-Fibroblast Growth Factor 7, SEQ ID NO.4
Mouse keratinocytes (MK)
  mitogenic activity: Neither GST-FGF1 nor GST-FGF7 bind and activate the FGFR kinase complex and exhibit mitogenic activity; also recorded: inactive
FGFR2111b
  binding to / activation of the FGFR complex: Neither GST-FGF1 nor GST-FGF7 bind and activate the FGFR kinase complex; also recorded: inactive
[1]
  heparin binding: retain affinity for heparin similar to the unfused products; also recorded: fully active
[1]; heparin affinity chromatography, FPLC (FIG. 1)
  sodium chloride concentration of elution from heparin affinity column: about 0.9 M
Factor IIa
  neutralization of anti-Factor IIa activity compared with FGF7: same neutralization effects as FGF7
Factor Xa [2]
  neutralization of anti-Factor Xa activity compared with FGF7: same neutralization effects as FGF7

## PF4: Heparin-binding platelet factor 4, proposed scavenger for neutralizing the anticoagulant effect
[3]; humans (U.S. Pat. No. 5,801,063)
  adverse effect of administration to patients: serious granulocytopenia

## heparin
[3]; human, in vivo
  patients developing clinically significant osteoporosis: half
  patients with thrombocytopenia persisting for the duration of therapy: approximately 5%

## protamine
[3]; use of protamine in patients
  incidence of mild reactions: ≤ 16%

## ΔUAp2S(1→4)-α-D-GlcNpS6S (1→4)-α-L-IdoAp2S(1→]n4)-α-D-GlcNpS6S(1→4)-α-LIdoAp(1→4)-α-D-GlcNpAc6S(1→4)-β-D-GlcAp(1→4)-α-D-GlcNpS3S6S(1→4)-α-L-IdoAp2S(1→[4)-α-D-GlcNpS6S(1→4)-α-L-IdoAp2S(1 43 ]m4)-α-D-GlcNS6S where n+m=3 [tetradecasaccharide (14-mer)]
FGF7
  protection of FGF7 against protease: able to protect
Factor Xa [4]
  anti-factor Xa amydolytic activity: 5800 units/mg

## ΔUAp2S(1→4)-α-D-GlcNpS6S(1→4)-α-L-IdoAp(1→4)-α-D-GlcNpAc6S(1→4)-β-D-GlcAp(1→4)-α-D-GlcNpS3S6S(1→4)-α-L-IdoAp2S(1→4)-α-D-GlcNpS6S(1→4)-α-L-IdoAp2S(1→4)-α-D-GlcNpS6S [decasaccharide (10-mer)]
FGF7
  protection of FGF7 against protease: able to protect
Factor Xa [4]
  anti-factor Xa amydolytic activity: 3200 units/mg
